Key:
Test in all cases: normalised viability (% of control), CellTiter-Blue; higher = more viable cells (about 100 = DMSO control)
BT-474 = settings: 100 nM; incubation time: 72 h
Method: (§1)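 DSRT, CellTiter-Blue viability, 72 h incubation. Signal is normalised to DMSO and benzethonium chloride controls. Value is the normalised response at dose 3.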

BT-549 = settings: 100 nM; incubation time: 72 h
Method: as §1

CAL-120 = settings: 100 nM; incubation time: 72 h
Method: as §1

CAL-148 [1] = settings: 10 nM; incubation time: 72 h
Method: as §1

CAL-51 [2] = settings: 10 nM; incubation time: 72 h
Method: as §1

CAL-85-1 [3] = settings: 10 nM; incubation time: 72 h
Method: as §1

DU-4475 [4] = settings: 10 nM; incubation time: 72 h
Method: as §1

HCC1143 = settings: 100 nM; incubation time: 72 h
Method: as §1

HCC1599 = settings: 100 nM; incubation time: 72 h
Method: as §1

HCC1937 = settings: 100 nM; incubation time: 72 h
Method: as §1

HDQ-P1 [5] = settings: 10 nM; incubation time: 72 h
Method: as §1

Hs578T = settings: 100 nM; incubation time: 72 h
Method: as §1

MDA-MB-231 = settings: 100 nM; incubation time: 72 h
Method: as §1

MDA-MB-436 = settings: 100 nM; incubation time: 72 h
Method: as §1

MDA-MB-453 [6] = settings: 10 nM; incubation time: 72 h
Method: as §1

MDA-MB-468 = settings: 100 nM; incubation time: 72 h
Method: as §1

MFM-223 = settings: 100 nM; incubation time: 72 h
Method: as §1

SK-BR-3 = settings: 100 nM; incubation time: 72 h
Method: as §1

CAL-148 [7] = settings: 300 nM; incubation time: 72 h
Method: (§2)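 DSRT, CellTiter-Blue viability, 72 h incubation. Signal is normalised to DMSO and benzethonium chloride controls. Value is the normalised response at dose 6.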

CAL-51 [8] = settings: 300 nM; incubation time: 72 h
Method: as §2

CAL-85-1 [9] = settings: 300 nM; incubation time: 72 h
Method: as §2

DU-4475 [10] = settings: 300 nM; incubation time: 72 h
Method: as §2

HDQ-P1 [11] = settings: 300 nM; incubation time: 72 h
Method: as §2

MDA-MB-453 [12] = settings: 300 nM; incubation time: 72 h
Method: as §2

CAL-148 [13] = settings: 10000 nM; incubation time: 72 h
Method: (§3)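 DSRT, CellTiter-Blue viability, 72 h incubation. Signal is normalised to DMSO and benzethonium chloride controls. Value is the normalised response at dose 9.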

CAL-51 [14] = settings: 10000 nM; incubation time: 72 h
Method: as §3

CAL-85-1 [15] = settings: 10000 nM; incubation time: 72 h
Method: as §3

DU-4475 [16] = settings: 10000 nM; incubation time: 72 h
Method: as §3

HDQ-P1 [17] = settings: 10000 nM; incubation time: 72 h
Method: as §3

MDA-MB-453 [18] = settings: 10000 nM; incubation time: 72 h
Method: as §3

Structure (SMILES)	normalised viability (BT-474) [%]	normalised viability (BT-549) [%]	normalised viability (CAL-120) [%]	normalised viability (CAL-148 [1]) [%]	normalised viability (CAL-51 [2]) [%]	normalised viability (CAL-85-1 [3]) [%]	normalised viability (DU-4475 [4]) [%]	normalised viability (HCC1143) [%]	normalised viability (HCC1599) [%]	normalised viability (HCC1937) [%]	normalised viability (HDQ-P1 [5]) [%]	normalised viability (Hs578T) [%]	normalised viability (MDA-MB-231) [%]	normalised viability (MDA-MB-436) [%]	normalised viability (MDA-MB-453 [6]) [%]	normalised viability (MDA-MB-468) [%]	normalised viability (MFM-223) [%]	normalised viability (SK-BR-3) [%]	normalised viability (CAL-148 [7]) [%]	normalised viability (CAL-51 [8]) [%]	normalised viability (CAL-85-1 [9]) [%]	normalised viability (DU-4475 [10]) [%]	normalised viability (HDQ-P1 [11]) [%]	normalised viability (MDA-MB-453 [12]) [%]	normalised viability (CAL-148 [13]) [%]	normalised viability (CAL-51 [14]) [%]	normalised viability (CAL-85-1 [15]) [%]	normalised viability (DU-4475 [16]) [%]	normalised viability (HDQ-P1 [17]) [%]	normalised viability (MDA-MB-453 [18]) [%]
COc1cc([C@@H]2c3cc4c(cc3[C@@H](O[C@@H]3O[C@@H]5CO[C@@H](c6cccs6)O[C@H]5[C@H](O)[C@H]3O)[C@H]3COC(=O)[C@H]23)OCO4)cc(OC)c1O [Teniposide]	105	70.9	75.2	95.5	95	101	67.2	79.4	87.8	61.4	106	71.5	81.8	81.8	111	79.8	101	52.3	49.2	28.1	82.6	10.4	86.3	87.9	0.81	3.14	26.4	-1.93	53.2	30.6
Cc1ccc(-c2cc(C(F)(F)F)nn2-c2ccc(S(N)(=O)=O)cc2)cc1 [Celecoxib]	110	108	91.1	97.2	100	76.9	96.9	95.9	90.2	94.9	109	83.1	89	92.3	103	111	88.4	83.3	88	97	70.2	96	72.2	92.5	55.1	90.6	63.4	68.5	80.3	34
CCCS(=O)(=O)Nc1ccc(F)c(C(=O)c2c[nH]c3ncc(-c4ccc(Cl)cc4)cc23)c1F [Vemurafenib]	111	98.2	92.7	98.1	97.1	98.6	107	80.1	98	96.4	87.6	110	94.6	81.6	107	104	87.5	96.9	90.3	96.5	87.4	55.1	74.4	88.7	94.1	103	78.3	-0.32	68.6	75.5

— the supplement of paper PMC4862054
